# Data as given in patent US9550763B2, “Heterocyclic ring and carbocyclic derivative” (Shionogi & Co., Ltd., priority 2012, dated 2017).
# Target: human P2X3 receptor (Homo sapiens (Human), UniProt P56373)
# Experiment: Evaluation of human P2X3 receptor inhibitory activity (Test Example 1-1, FDSS 3000, 96-well, 50 nM ATP)
# Assay type: cell-based
# Conditions: human P2X3 receptor in C6BU-1 cells; Test Example 1-1 (compounds I-001 to I-300)
# Experimental: Stably expressing cell line (C6BU-1 cell transfected with human P2X3 receptor gene (GenBank accession number Y07683) was used. The cells were seeded in a 96-well microtiter plate at a concentration of 8000 cells/well and cultured in the medium (7.0% fetal bovine serum, 7.0% horse serum, 1% antibiotic and antifungal in DMEM) for one day at 37° C. under 5% carbon dioxide atmosphere. The medium was replaced with 4 μM Fluo-3-AM solution (20 mM HEPES, 137 mM NaCl, 5.27 mM KCl, 0.9 mM MgCl2, 1.26 mM CaCl2, 5.6 mM D-glucose, 2.5 mM probenecid, 1% BSA, and 0.08% Pluronic F-127, pH 7.5) and incubated at 37° C. under 5% dioxide carbon atmosphere for one hour. The plate was washed with washing buffer (20 mM HEPES, 137 mM NaCl, 5.27 mM KCl, 0.9 mM MgCl2, 1.26 mM CaCl2, 5.6 mM D-glucose, 2.5 mM probenecid, pH7.5), and each well was added with 40 μL of this buffer. The plate was placed in High-Throughput Screening System. FDSS 3000 (Hamamatsu Photonics K.K.). Measurement of fluorescence intensity by FDSS 3000 was started, and 40 μL of DMSO solutions containing different concentrations of the test compound as prepared by dilution with dilution buffer (20 mM HEPES, 137 mM NaCl, 5.27 mM KCl, 0.9 mM MgCl2, 1.26 mM CaCl2, 5.68 mM D-glucose, 2.5 mM probenecid, 0.1% Pluronic F-127, pH7.5) were dispensed to each well through the built-in automatic dispenser. Five minutes after, 50 nM ATP solution (50 μL) prepared by dilution with the dilution buffer was dispensed through the built-in automatic dispenser, and the measurement of fluorescence intensity was continued for 4 min. For each well, the specific maximum fluorescence intensity was calculated as the ratio of the maximum fluorescence intensity after addition of the ATP solution to the fluorescence intensity at the starting of the measurement. The 50% inhibitory concentration (IC50) was calculated under the assumption that the specific maximum fluorescence intensity without test compound is 0% inhibition and that the specific maximum fluorescence intensity when the dilution buffer was added in place of ATP solution is 100% inhibition, to evaluate the inhibitory activity of the test compound. FDSS software (Hamamatsu Photonics K.K.) was used for calculation of the specific maximum fluorescence intensity. IC50 was calculated using Microsoft Excel (Microsoft Corporation) and XLfit (idbs Ltd.)
# The data of the compounds I-001 to I-300 are the results by the method mentioned in Test Example 1-1, and the data of the compounds I-301 to I-483 are the results by the method mentioned in Test Example 1-2.
# Sequence of human P2X3 receptor (P56373 whole entry): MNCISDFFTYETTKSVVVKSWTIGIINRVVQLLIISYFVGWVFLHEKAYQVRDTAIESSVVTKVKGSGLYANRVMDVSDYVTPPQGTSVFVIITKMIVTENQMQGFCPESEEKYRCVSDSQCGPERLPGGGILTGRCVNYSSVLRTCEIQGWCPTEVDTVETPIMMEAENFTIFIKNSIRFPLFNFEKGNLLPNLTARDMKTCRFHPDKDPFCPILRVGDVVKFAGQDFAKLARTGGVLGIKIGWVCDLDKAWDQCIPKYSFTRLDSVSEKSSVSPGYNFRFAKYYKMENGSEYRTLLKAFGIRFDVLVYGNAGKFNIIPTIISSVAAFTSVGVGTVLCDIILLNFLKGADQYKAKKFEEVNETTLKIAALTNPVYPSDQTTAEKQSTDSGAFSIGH
row,Compound,IC50 [nM]
1,C[C@@H](Cn1c(=O)cc(Nc2ccc(Oc3ccccc3)cc2)n(Cc2ccc(Cl)cc2)c1=O)C(=O)O [Compound I-117],26
2,CCC(=O)Nc1c[nH]/c(=N\c2ccc(Oc3ccc(CO)nc3)cc2)n(Cc2ccc(Cl)cc2)c1=O [Compound I-118],17
3,C[C@@H](Cn1c(=O)cc(Nc2ccc(Oc3ncccc3F)cc2)n(Cc2ccc(Cl)cc2)c1=O)C(=O)O [Compound I-119],8
4,C[C@@H](Cn1c(=O)cc(Nc2ccc(Oc3cccc(F)n3)cc2)n(Cc2ccc(Cl)cc2)c1=O)C(=O)O [Compound I-120],6
5,C[C@@H](Cn1c(=O)cc(Nc2ccc(Oc3ccon3)cc2)n(Cc2ccc(Cl)cc2)c1=O)C(=O)O [Compound I-121],26
6,COC(=O)[C@@H](C)Cn1c(=O)cc(Nc2ccc(Oc3cccc(C#N)n3)c(F)c2)n(Cc2ccc(Cl)cc2)c1=O [Compound I-122],3
7,O=C(Nc1c[nH]/c(=N\c2ccc(Oc3ccon3)cc2)n(Cc2ccc(F)cc2)c1=O)C1CCOCC1 [Compound I-123],24
8,CCn1c(=O)cc(Nc2ccc(Oc3cccc(C#N)n3)cn2)n(Cc2ccc(Cl)cc2)c1=O [Compound I-124],19
9,CCn1c(=O)cc(Nc2ccc(Oc3cccc(C(=O)O)n3)cn2)n(Cc2ccc(Cl)cc2)c1=O [Compound I-125],23
10,C[C@@H](Cn1c(=O)cc(Nc2ccc(Oc3cccc(C(N)=O)n3)c(F)c2)n(Cc2ccc(Cl)cc2)c1=O)C(=O)O [Compound I-126],3
11,C[C@@H](Cn1c(=O)cc(Nc2ccc(Oc3cccc(C#N)n3)c(F)c2)n(Cc2ccc(Cl)cc2)c1=O)C(=O)O [Compound I-127],3
12,CCOC(=O)c1c[nH]/c(=N\c2ccc(Oc3ccc(F)cn3)cc2)n(Cc2ccc(Cl)cc2)c1=O [Compound I-128],35
13,CCc1c[nH]/c(=N\c2ccc(Oc3cccc(C#N)n3)cc2)n(Cc2ccc(Cl)cc2)c1=O [Compound I-129],61
14,CCc1c[nH]/c(=N\c2ccc(Oc3cccc(C#N)n3)c(C)c2)n(Cc2ccc(Cl)cc2)c1=O [Compound I-130],32
15,O=C(Nc1cnc(Nc2ccc(Oc3nccs3)cc2)n(Cc2ccc(Cl)cc2)c1=O)C1CCOCC1 [Compound I-131],2
16,O=C(Nc1cnc(Nc2ccc(Oc3ncccc3F)cc2)n(Cc2ccc(Cl)cc2)c1=O)C1CCOCC1 [Compound I-132],2
17,O=C(Nc1cnc(Nc2ccc(Oc3ccc(F)cn3)cc2)n(Cc2ccc(Cl)cc2)c1=O)C1CCOCC1 [Compound I-133],1
18,O=C(Nc1cnc(Nc2ccc(Oc3cccc(F)n3)cc2)n(Cc2ccc(Cl)cc2)c1=O)C1CCOCC1 [Compound I-134],2
19,Cc1cc(Nc2ncc(NC(=O)C3CCOCC3)c(=O)n2Cc2ccc(Cl)cc2)ccc1Oc1cccc(F)n1 [Compound I-135],2

row,Compound,IC50 [nM]
1,Cc1cncc(Oc2ccc(Nc3ncc(NC(=O)C4CCOCC4)c(=O)n3Cc3ccc(Cl)cc3)cc2)n1 [Compound I-136],2
2,Cc1ccc(Oc2ccc(Nc3ncc(NC(=O)C4CCOCC4)c(=O)n3Cc3ccc(Cl)cc3)cc2)nn1 [Compound I-137],1
3,CCC(=O)Nc1c[nH]/c(=N\c2ccc(Oc3cnc(C#N)cn3)cc2)n(Cc2ccc(Cl)cc2)c1=O [Compound I-138],4
4,Cc1cc(/N=c2\[nH]cc(C(N)=O)c(=O)n2Cc2ccc(Cl)cc2)ccc1Oc1cccc(F)n1 [Compound I-139],16
5,COc1cccc(Oc2ccc(/N=c3\[nH]cc(C(N)=O)c(=O)n3Cc3ccc(Cl)cc3)cc2C)n1 [Compound I-140],99
6,O=C(O)c1c[nH]/c(=N\c2ccc(Oc3ccc(F)cn3)cc2)n(Cc2ccc(Cl)cc2)c1=O [Compound I-141],467
7,NC(=O)c1c[nH]/c(=N\c2ccc(Oc3ccc(F)cn3)cc2)n(Cc2ccc(Cl)cc2)c1=O [Compound I-142],26
8,N#Cc1cnc(Oc2ccc(/N=c3\[nH]cc(NC(=O)C4CCOCC4)c(=O)n3Cc3ccc(Cl)cc3)cc2)cn1 [Compound I-143],2
9,CCc1c[nH]/c(=N\c2ccc(Oc3cccc(C(=O)O)n3)cc2)n(Cc2ccc(Cl)cc2)c1=O [Compound I-144],35
10,CCC(=O)Nc1c[nH]/c(=N\c2ccc(Oc3cncc(C)n3)cc2)n(Cc2ccc(Cl)cc2)c1=O [Compound I-145],40
11,CCC(=O)Nc1c[nH]/c(=N\c2ccc(Oc3ccc(C)nn3)cc2)n(Cc2ccc(Cl)cc2)c1=O [Compound I-146],26
12,C=C(C)c1c[nH]/c(=N\c2ccc(Oc3cccc(C#N)n3)cc2)n(Cc2ccc(Cl)cc2)c1=O [Compound I-147],112
13,CCc1c[nH]/c(=N\c2ccc(Oc3cccc(C(=O)O)n3)c(C)c2)n(Cc2ccc(Cl)cc2)c1=O [Compound I-148],59
14,Cc1noc(-c2c[nH]/c(=N\c3ccc(Oc4ccc(F)cn4)cc3)n(Cc3ccc(Cl)cc3)c2=O)n1 [Compound I-151],31
15,O=c1cc[nH]/c(=N\c2ccc(Oc3ccc(F)cn3)cc2)n1Cc1ccc(Cl)cc1 [Compound I-152],291
16,CCOC(=O)c1c[nH]/c(=N\c2ccc(Oc3cccc(C#N)n3)cc2)n(Cc2ccc(Cl)cc2)c1=O [Compound I-153],21
17,CCc1cn(Cc2ccc(Cl)cc2)c(Nc2ccc(Oc3ncc(C(=O)O)s3)cc2)nc1=O [Compound I-154],317
18,O=C(NC1CCOCC1)c1cn(Cc2ccc(Cl)cc2)c(Nc2ccc(Oc3ncccc3F)cc2)nc1=O [Compound I-155],17
19,O=C(NC1CCOCC1)c1cn(Cc2ccc(Cl)cc2)c(Nc2ccc(Oc3cccc(F)n3)cc2)nc1=O [Compound I-156],6

row,Compound,IC50 [nM]
1,Cc1cc(Nc2nc(=O)c(C(=O)NC3CCOCC3)cn2Cc2ccc(Cl)cc2)ccc1Oc1cccc(F)n1 [Compound I-157],11
2,O=C(NC1CCOCC1)c1cn(Cc2ccc(Cl)cc2)c(Nc2ccc(Oc3ccc(F)cn3)cc2)nc1=O [Compound I-158],11
3,Cc1cc(Nc2nc(=O)c(C(=O)NC3CCOCC3)cn2Cc2ccc(Cl)cc2)ccc1Oc1ncccc1F [Compound I-160],26
4,O=C(NC1CCOCC1)c1cn(Cc2ccc(Cl)cc2)c(Nc2ccc(Oc3nccs3)cc2)nc1=O [Compound I-161],22
5,CCC(=O)Nc1c[nH]/c(=N\c2ccc(Oc3ccnc(CO)c3)cc2)n(Cc2ccc(Cl)cc2)c1=O [Compound I-163],21
6,CCCn1c(=O)cc(Nc2ccc(Oc3cccc(C#N)n3)cc2)n(Cc2ccc(Cl)cc2)c1=O [Compound I-164],10
7,CCCn1c(=O)cc(Nc2ccc(Oc3cccc(C(=O)OCC)c3)cn2)n(Cc2ccc(Cl)cc2)c1=O [Compound I-166],169
8,CCCn1c(=O)cc(Nc2ccc(Oc3cccc(C(=O)O)c3)cn2)n(Cc2ccc(Cl)cc2)c1=O [Compound I-167],35
9,CCCn1c(=O)cc(Nc2ccc(Oc3cccc(C(=O)OC)c3)cc2)n(Cc2ccc(Cl)cc2)c1=O [Compound I-168],159
10,CCCn1c(=O)cc(Nc2ccc(Oc3cccc(C(=O)O)c3)cc2)n(Cc2ccc(Cl)cc2)c1=O [Compound I-169],11
11,CCc1c[nH]/c(=N\c2ccc(Oc3cncc(C(=O)O)c3)cc2)n(Cc2ccc(Cl)cc2)c1=O [Compound I-170],54
12,CCCn1c(=O)cc(Nc2ccc(Oc3cccc(C#N)n3)cn2)n(Cc2ccc(Cl)cc2)c1=O [Compound I-171],21
13,CCCn1c(=O)cc(Nc2ccc(Oc3cccc(C(=O)O)n3)cn2)n(Cc2ccc(Cl)cc2)c1=O [Compound I-172],16
14,CCn1c(=O)cc(Nc2ccc(Oc3ccc(C(=O)OC)nn3)cc2)n(Cc2ccc(Cl)cc2)c1=O [Compound I-173],4
15,CCn1c(=O)cc(Nc2ccc(Oc3ccc(C(=O)O)nn3)cc2)n(Cc2ccc(Cl)cc2)c1=O [Compound I-174],36
16,O=C(NC1CCOCC1)c1cn(Cc2ccc(Cl)cc2)c(Nc2ccc(Oc3ccon3)cc2)nc1=O [Compound I-175],37
17,CCOC(=O)c1c[nH]/c(=N\c2ccc(Oc3ccc(C)nn3)cc2)n(Cc2ccc(Cl)cc2)c1=O [Compound I-177],14
18,NC(=O)c1cccc(Oc2ccc(/N=c3\[nH]cc(C(N)=O)c(=O)n3Cc3ccc(Cl)cc3)cc2)n1 [Compound I-178],14
19,Cc1ccc(Oc2ccc(/N=c3\[nH]cc(C(=O)O)c(=O)n3Cc3ccc(Cl)cc3)cc2)nn1 [Compound I-179],359
